# Measured values taken from patent publication US20040121946A9, “Inducing cellular immune responses to her2/neu using peptide and nucleic acid compositions” (priority 2002, published 2004).
# Where no end group is shown, it is not given here.
# Experiments:
# DRB1*0301 (DR3) = DRB1*0301 (DR3) (Homo sapiens, UniProt P01903+P01911, A100K/A102G/A103R/A169T/F55Y/I96L/K41T/L162R/M171V/P40S/Q125H/Q178H/Q39Y/R42S/S66N/T106N/T262R/W38E/Y61H); assay: HLA class II peptide binding assay, purified HLA; settings: unit not given
# [1] = tested on: HLA-DR molecules (DR1, DR4w4, DR7, DRB5*0101, DRB1*1501, DRB1*1101, DRB1*0802, DRB1*1302); assay: DR supertype cross-reactive binding; parameters: species or system human; settings: for DR147 Cross-binding: number of DR1, DR4w4, DR7 bound, Table XXVIII
# HLA-B*0702 = HLA-B*0702 (Homo sapiens, UniProt P01889); type: binding; settings: Table XXIV, B7 supermotif peptides
# [2] = Table XIX, DR supermotif peptides
# [3] = Table XXa, DR 3a motif peptides
Compound,DR3 binding data (DRB1*0301 (DR3); [2]),DR3 binding data (DRB1*0301 (DR3); [3]),further results
CC(C)C[C@H](NC(=O)[C@@H]1CCCN1C(=O)[C@@H](NC(=O)[C@@H](NC(=O)[C@@H]1CCCN1C(=O)[C@H](CC(=O)O)NC(=O)[C@H](CCC(=O)O)NC(=O)[C@H](CO)NC(=O)[C@H](Cc1ccc(O)cc1)NC(=O)[C@H](CCCNC(=N)N)NC(=O)[C@H](CCC(N)=O)NC(=O)[C@@H](N)CC(C)C)[C@@H](C)O)C(C)C)C(=O)N1CCC[C@H]1C(=O)N[C@@H](CO)C(=O)N[C@@H](CCC(=O)O)C(=O)O,0.0270,0.0270,–
DLTLGLEPSEEEAPR,−0.0025,−0.0025,–
CC(C)C[C@H](NC(=O)[C@H](CCC(N)=O)NC(=O)[C@H](CC(=O)O)NC(=O)[C@H](Cc1c[nH]c2ccccc12)NC(=O)[C@@H]1CCCN1C(=O)[C@@H](NC(=O)[C@@H](NC(=O)[C@H](Cc1c[nH]cn1)NC(=O)[C@@H](N)C(C)C)[C@@H](C)O)C(C)C)C(=O)N[C@@H](Cc1ccccc1)C(=O)N[C@@H](CCCNC(=N)N)C(=O)N[C@@H](CC(N)=O)C(=O)N1CCC[C@H]1C(=O)N[C@@H](Cc1c[nH]cn1)C(=O)N[C@@H](CCC(N)=O)C(=O)O,0.0220,0.0220,–
CC[C@H](C)[C@H](NC(=O)[C@@H](NC(=O)[C@H](CS)NC(=O)[C@@H](NC(=O)[C@@H]1CCCN1C(=O)[C@@H]1CCCN1C(=O)[C@H](CCC(N)=O)NC(=O)[C@@H]1CCCN1C(=O)[C@H](CC(C)C)NC(=O)[C@H](CCCNC(=N)N)NC(=O)[C@H](CCC(=O)O)NC(=O)CN)[C@@H](C)CC)[C@@H](C)O)C(=O)N[C@@H](CC(=O)O)C(=O)N[C@H](C(=O)N[C@@H](Cc1ccc(O)cc1)C(=O)O)C(C)C,–,–,DR147 Cross-binding [1]: 0
DNLYYWDQDPPERGA,–,−0.0025,–
SLAFLPESFDGDPAS,–,−0.0027,–
KNGVVKDVFAFGGAV,–,−0.0025,–
MRRLLQETELVEPLT,–,−0.0027,–
AIKVLRENTSPKANK,0.0075,0.0075,–
CC[C@H](C)[C@H](NC(=O)CNC(=O)[C@@H](NC(=O)[C@@H](NC(=O)[C@H](C)NC(=O)[C@H](CO)NC(=O)[C@@H](NC(=O)[C@@H](NC(=O)[C@H](CO)NC(=O)[C@@H](NC(=O)[C@@H](N)CC(C)C)[C@@H](C)O)[C@@H](C)CC)[C@@H](C)CC)C(C)C)C(C)C)C(=O)N[C@@H](CC(C)C)C(=O)N[C@@H](CC(C)C)C(=O)N[C@H](C(=O)N[C@H](C(=O)O)C(C)C)C(C)C,–,–,DR147 Cross-binding [1]: 1
CC[C@H](C)[C@H](NC(=O)[C@@H]1CCCN1C(=O)[C@@H](NC(=O)[C@@H](NC(=O)[C@H](CC(N)=O)NC(=O)[C@H](CC(N)=O)NC(=O)[C@H](CC(C)C)NC(=O)[C@@H]1CCCN1C(=O)[C@@H](N)Cc1ccccc1)[C@@H](C)O)[C@@H](C)O)C(=O)O [Her2/neu.121.F1I9],–,–,IC50 (HLA-B*0702): 1.6 nM
CC(C)C[C@H](NC(=O)[C@H](C)NC(=O)[C@H](Cc1ccc(O)cc1)NC(=O)[C@H](CC(N)=O)NC(=O)[C@H](CC(=O)O)NC(=O)[C@H](CCC(=O)O)NC(=O)[C@H](Cc1ccccc1)NC(=O)[C@H](CC(C)C)NC(=O)[C@H](CCC(N)=O)NC(=O)[C@@H](NC(=O)CN)[C@@H](C)O)C(=O)N[C@@H](C)C(=O)N[C@H](C(=O)N[C@@H](CC(C)C)C(=O)N[C@@H](CC(=O)O)C(=O)O)C(C)C,–,0.2200,–
TVPLPSETDGYVAPL,–,−0.0025,–
CSCC[C@H](NC(=O)[C@H](CC(=O)O)NC(=O)[C@H](CC(=O)O)NC(=O)[C@H](CC(=O)O)NC(=O)[C@H](CCC(=O)O)NC(=O)[C@H](CC(C)C)NC(=O)[C@H](CC(C)C)NC(=O)[C@H](CO)NC(=O)[C@H](CCCNC(=N)N)NC(=O)[C@@H](N)Cc1ccc(O)cc1)C(=O)NCC(=O)N[C@@H](CC(=O)O)C(=O)N[C@@H](CC(C)C)C(=O)N[C@H](C(=O)N[C@@H](CC(=O)O)C(=O)O)C(C)C,–,0.0630,–
NQEVTAEDGTQRCEK,–,−0.0027,–
CC(C)C[C@H](NC(=O)[C@@H]1CCCN1C(=O)[C@H](C)NC(=O)[C@@H](NC(=O)[C@H](CC(N)=O)NC(=O)[C@H](CO)NC(=O)[C@H](C)NC(=O)[C@@H]1CCCN1C(=O)[C@H](CC(=O)O)NC(=O)CNC(=O)[C@H](CC(=O)O)NC(=O)[C@H](Cc1ccccc1)NC(=O)[C@H](CO)NC(=O)[C@H](CCC(=O)O)NC(=O)[C@@H]1CCCN1)[C@@H](C)O)C(=O)O,−0.0027,−0.0027,–
SDVFDGDLGMGAAKG,–,−0.0025,–

Compound,DR3 binding data (DRB1*0301 (DR3); [2]),DR3 binding data (DRB1*0301 (DR3); [3]),further results
LVTYNTDTFESMPNP,–,−0.0027,–
CC(C)C[C@H](NC(=O)CNC(=O)[C@H](Cc1c[nH]c2ccccc12)NC(=O)[C@@H](N)CCCNC(=N)N)C(=O)N[C@@H](CC(C)C)C(=O)N[C@@H](CC(C)C)C(=O)N[C@@H](C)C(=O)N[C@@H](CC(C)C)C(=O)N[C@@H](CC(C)C)C(=O)N1CCC[C@H]1C(=O)N1CCC[C@H]1C(=O)NCC(=O)N[C@@H](C)C(=O)N[C@@H](C)C(=O)N[C@@H](CO)C(=O)O,–,–,DR147 Cross-binding [1]: 2; Broad Binding (5/8) ([1]; number of the 8 DR alleles bound): 6
SLSFLQDIQEVQGYV,–,0.0520,–
FPGGLRELQI [Her2/neu.133.F1I10],–,–,IC50 (HLA-B*0702): 306 nM
CC[C@H](C)[C@H](NC(=O)[C@@H]1CCCN1C(=O)[C@H](CCSC)NC(=O)[C@H](Cc1ccc(O)cc1)NC(=O)[C@H](CO)NC(=O)[C@H](CC(C)C)NC(=O)[C@H](CC(=O)O)NC(=O)[C@@H]1CCCN1C(=O)[C@H](CCCCN)NC(=O)[C@@H](NC(=O)CNC(=O)[C@H](CO)NC(=O)[C@@H]1CCCN1)C(C)C)C(=O)N[C@@H](Cc1c[nH]c2ccccc12)C(=O)N[C@@H](CCCCN)C(=O)O,−0.0027,−0.0027,–
ETEYHADGGKVPIKW,–,−0.0027,–
CSCC[C@H](NC(=O)[C@H](CCCNC(=N)N)NC(=O)[C@H](CO)NC(=O)[C@H](Cc1ccccc1)NC(=O)[C@H](CCC(=O)O)NC(=O)[C@H](CO)NC(=O)[C@@H](NC(=O)[C@H](CC(C)C)NC(=O)[C@H](CCC(=O)O)NC(=O)[C@H](CCCNC(=N)N)NC(=O)[C@@H](N)Cc1ccccc1)C(C)C)C(=O)N[C@@H](C)C(=O)N[C@@H](CCCNC(=N)N)C(=O)N[C@@H](CC(=O)O)C(=O)N1CCC[C@H]1C(=O)O,0.0710,0.0710,–
DTILWKDIFHKNNQL,–,−0.0027,–
NKEILDEAYVMAGVG,–,0.0047,–
CSCC[C@H](NC(=O)CNC(=O)[C@H](CC(C)C)NC(=O)CNC(=O)[C@H](Cc1ccc(O)cc1)NC(=O)[C@@H](N)CS)C(=O)N[C@@H](CCC(=O)O)C(=O)N[C@@H](Cc1c[nH]cn1)C(=O)N[C@@H](CC(C)C)C(=O)N[C@@H](CCCNC(=N)N)C(=O)N[C@@H](CCC(=O)O)C(=O)N[C@H](C(=O)N[C@@H](CCCNC(=N)N)C(=O)N[C@@H](C)C(=O)N[C@H](C(=O)O)C(C)C)C(C)C,0.0083,0.0083,–
TAPLQPEQLQVEETL,–,0.0023,–
CSCC[C@H](NC(=O)[C@H](CC(=O)O)NC(=O)[C@H](CC(=O)O)NC(=O)[C@H](CC(=O)O)NC(=O)[C@H](CCC(=O)O)NC(=O)[C@H](CC(C)C)NC(=O)[C@H](CC(C)C)NC(=O)[C@H](CO)NC(=O)[C@@H](N)CCCNC(=N)N)C(=O)NCC(=O)N[C@@H](CC(=O)O)C(=O)N[C@@H](CC(C)C)C(=O)N[C@H](C(=O)N[C@@H](CC(=O)O)C(=O)N[C@@H](C)C(=O)O)C(C)C,0.0080,0.0080,–
CC(C)C[C@H](NC(=O)[C@@H](NC(=O)[C@H](CCC(=O)O)NC(=O)[C@H](Cc1ccccc1)NC(=O)[C@@H](NC(=O)[C@H](CCC(N)=O)NC(=O)[C@H](CC(C)C)NC(=O)[C@H](CCC(N)=O)NC(=O)[C@H](CCC(=O)O)NC(=O)[C@@H]1CCCN1C(=O)[C@H](CCC(N)=O)NC(=O)[C@H](CC(C)C)NC(=O)[C@@H]1CCCN1C(=O)[C@H](C)NC(=O)[C@@H](N)[C@@H](C)O)C(C)C)[C@@H](C)O)C(=O)O,0.0023,–,–
FVVIQNEDLGPASPL,−0.0025,−0.0025,–
CC[C@H](C)[C@H](NC(=O)[C@@H](NC(=O)[C@@H](NC(=O)[C@H](Cc1ccccc1)NC(=O)[C@H](CCCNC(=N)N)NC(=O)[C@H](CCC(N)=O)NC(=O)[C@@H]1CCCN1C(=O)[C@H](CC(=O)O)NC(=O)[C@H](CCCNC(=N)N)NC(=O)[C@H](C)NC(=O)[C@H](CCSC)NC(=O)[C@H](CCCNC(=N)N)NC(=O)[C@H](CO)NC(=O)[C@@H](N)Cc1ccccc1)C(C)C)C(C)C)C(=O)N[C@@H](CCC(N)=O)C(=O)O,–,0.1600,–
GDLVDAEEYLVPQQG,–,0.0250,–
CC(C)C[C@H](NC(=O)[C@H](CS)NC(=O)[C@H](Cc1c[nH]cn1)NC(=O)[C@H](CCCNC(=N)N)NC(=O)[C@H](C)NC(=O)[C@H](CC(N)=O)NC(=O)[C@@H](NC(=O)[C@H](Cc1ccc(O)cc1)NC(=O)[C@H](CCC(=O)O)NC(=O)[C@H](CCCNC(=N)N)NC(=O)[C@@H]1CCCN1C(=O)[C@H](CC(C)C)NC(=O)CNC(=O)[C@H](CCC(N)=O)NC(=O)[C@@H](N)CC(C)C)C(C)C)C(=O)O,−0.0027,−0.0027,–
